Results as given in patent publication US10745428B2, “Antiviral phosphodiamide prodrugs of tenofovir” (Merck Sharp & Dohme Corp., priority 2015, dated 2020).
Where two headings read alike, the source gives them in different places.

Legend:
HIV-1 (H9/IIIB strain) = experiment: Multiple round HIV-1 infection assay (Viking assay), HIV-1 replication in MT4-GFP cells; type: cell-based; conditions: MT4-GFP cells infected with HIV-1 H9/IIIB
Description: The antiviral activity of the tenofovir prodrugs of the Examples herein was assessed in an assay that measures the rate of replication of HIV in cell culture, termed the Viking assay (VIral KINetics in Green cells) and performed as follows. HIV-1 replication was monitored using MT4-gag-GFP clone D3 (hereafter designated MT4-GFP; GFP is green fluorescent protein), which are MT-4 cells modified to harbor a GFP reporter gene, the expression of which is dependent on the HIV-1 expressed proteins tat and rev; see Wang Y-J et al., 2010J Virological Methods 165:230-237. Productive infection of an MT4-GFP cell with HIV-1 results in GFP expression approximately 24 h post-infection. MT4-GFP cells were maintained at 37° C./5% CO2/90% relative humidity in RPMI 1640 supplemented with 10% fetal bovine serum, 100 U/ml penicillin/streptomycin, and 400 μg/ml G418 to maintain the reporter gene. For infections, MT4-GFP cells were placed in the same medium lacking G418 and infected overnight with HIV-1 (H9/IIIB strain) virus at an approximate multiplicity of infection of 0.01 in the same incubation conditions. Cells were then washed and re-suspended in either RPMI 1640 supplemented with 10% or 50% normal human serum (NHS) at 1.6×10^5 cells/mL (10% NHS or 50% NHS, respectively). Compound plates were prepared by dispensing compounds dissolved in DMSO into wells of 384 well poly-D-lysine-coated plates (0.2 μl/well) using an ECHO acoustic dispenser. Each compound was tested in a 10-point serial 3-fold dilution (typical final concentrations: 8.4 μM-0.42 nM). Controls included no inhibitor (DMSO only) and a combination of three antiviral agents (efavirenz, indinavir, and an integrase strand transfer inhibitor at final concentrations of 4 μM each). Cells were added (50 μL/well) to compound plates and the infected cells were maintained at 37′C/5% CO2/90% relative humidity.
Infected cells were quantified at two time points, ˜48 h and ˜72 h post-infection, by counting the number of green cells in each well using an Acumen eX3 scanner. The increase in the number of green cells over ˜24 h period gives the reproductive ratio, R0, which is typically 5-15 and has been shown experimentally to be in logarithmic phase (data not shown). R0 is calculated for each well, and IC50s determined by non-linear 4-parameter curve fitting.

[1] = Prodrug stability assay in bio-relevant media (FaSSIF with Pancreatin), GI Tract stability; type: in vitro ADME; conditions: HPLC peak area of prodrug at 5 h divided by area at 0 h; 0.5 mg/mL Pancreatin in FaSSIF, 37° C.
Description: The following assay was employed to evaluate the stability of the prodrugs in simulated gastrointestinal tract conditions. Preparation of fasted state simulated intestinal fluid (FaSSIF) using Phares SIF Powder was carried out according to protocols from Phare Drug Delivery AG (Baselland, Switzerland). For sample preparation, 10 μL stock solutions (10 mM) of prodrug substance in DMSO was added to 990 μL of 0.5 mg/mL Pancreatin solution (Fisher CAS#8049-47-6) in FaSSIF. Two samples were prepared for each compound. If the sample was a clear solution, it was directly analyzed by HPLC. If the sample was not clear, the sample was diluted with 100% ACN, maintained at 37° C. and observed 5 h later. If the sample was clear, HPLC analysis was directly performed. If the sample was still not clear, the sample was diluted with 100% ACN and assayed by HPLC. All the samples were vortexed for 3 min and observed before injection. For the diluted samples, the area is multiplied by a factor when the data is analyzed. The analysis was carried out with an Agilent 1100 series HPLC with autosampler. The column was usually a Poroshell 120 EC-C18, 4.6×50 mm, 2.7 μm. The flow rate was 1.8 mL/min, and the injection volume was 5 or 10 μL. UV detection was in the range 210-400 nm. The mobile phase consisted of solvent A (water plus 10 mM tetrabutylammonium bromide) and solvent B (acetonitrile) with a gradient of 90% solvent A at 0 min, changing to 95% solvent B over 6 min, maintaining for 1.5 min, then reverting to 90% solvent A over 1.6 min. The HPLC peak area of the prodrug at 5 h was divided by the HPLC peak area of the prodrug at 0 h, to generate the % claimed parent ratio, which is summarized in Table 2. for GI Tract stability.

[2] = 10% normal human serum, read-out: Viking, IC50 (10% NHS)
[3] = 50% normal human serum, read-out: Viking, IC50 (50% NHS)
[4] = Human immunodeficiency virus 1, IIIB, 50% normal human serum, read-out: Viking, IC50 (50% NHS)
[5] = Human immunodeficiency virus 1, IIIB, 10% normal human serum, read-out: Viking, IC50 (10% NHS)

Row | GI Tract stability [1] [%] | Compound | IC50 (HIV-1 (H9/IIIB strain); [2]) [µM] | IC50 (HIV-1 (H9/IIIB strain); [3]) [µM] | IC50 (HIV-1 (H9/IIIB strain); [4]) [µM] | IC50 (HIV-1 (H9/IIIB strain); [5]) [µM]
1 | – | CC(C)OC(=O)C(C)(C)NP(=O)(CO[C@H](C)Cn1cnc2c(N)ncnc21)N[C@H](C)C(=O)OC1CCCC1 (single isomer, unassigned) [Example 1A] | 0.0193 | 0.0443 | – | –
2 | 95.9 | CC(C)OC(=O)C(C)(C)NP(=O)(CO[C@H](C)Cn1cnc2c(N)ncnc21)N[C@H](C)C(=O)OC1CCCC1 (single isomer, unassigned) [Example 1B] | 0.0024 | 0.0062 | – | –
3 | – | CCCCOC(=O)[C@@H](C)NP(=O)(CO[C@H](C)Cn1cnc2c(N)ncnc21)NC(C)(C)C(=O)OC(C)C (single isomer, unassigned) [Example 3A] | 0.0207 | 0.0714 | – | –
4 | – | CC(C)OC(=O)[C@@H](C)NP(=O)(CO[C@H](C)Cn1cnc2c(N)ncnc21)NC(C)(C)C(=O)OC(C)C (single isomer, unassigned) [Example 4A] | 0.418 | 1.4 | – | –
5 | – | CC(C)OC(=O)[C@@H](C)NP(=O)(CO[C@H](C)Cn1cnc2c(N)ncnc21)NC(C)(C)C(=O)OC(C)C (single isomer, unassigned) [Example 4B] | 0.0746 | 0.122 | – | –
6 | – | CC(C)COC(=O)[C@@H](C)NP(=O)(CO[C@H](C)Cn1cnc2c(N)ncnc21)NC(C)(C)C(=O)OC(C)C (single isomer, unassigned) [Example 5A] | 0.0331 | 0.129 | – | –
7 | – | CC(C)COC(=O)[C@@H](C)NP(=O)(CO[C@H](C)Cn1cnc2c(N)ncnc21)NC(C)(C)C(=O)OC(C)C (single isomer, unassigned) [Example 5B] | 0.0025 | 0.0064 | – | –
8 | – | CC(C)OC(=O)C(C)(C)NP(=O)(CO[C@H](C)Cn1cnc2c(N)ncnc21)N[C@H](C)C(=O)OC1CCCCC1 (single isomer, unassigned) [Example 6A] | 0.101 | 0.501 | – | –
9 | – | CC(C)OC(=O)C(C)(C)NP(=O)(CO[C@H](C)Cn1cnc2c(N)ncnc21)N[C@H](C)C(=O)OC1CCCCC1 (single isomer, unassigned) [Example 6B] | 0.0019 | 0.0056 | – | –
10 | – | CCCCCCOC(=O)[C@@H](C)NP(=O)(CO[C@H](C)Cn1cnc2c(N)ncnc21)NC(C)(C)C(=O)OC(C)C (single isomer, unassigned) [Example 7A] | 0.0104 | 0.0578 | – | –
11 | – | CCCCCCOC(=O)[C@@H](C)NP(=O)(CO[C@H](C)Cn1cnc2c(N)ncnc21)NC(C)(C)C(=O)OC(C)C (single isomer, unassigned) [Example 7B] | 0.0047 | 0.0288 | – | –
12 | – | CCCCCOC(=O)[C@@H](C)NP(=O)(CO[C@H](C)Cn1cnc2c(N)ncnc21)NC(C)(C)C(=O)OC(C)C (single isomer, unassigned) [Example 8A] | 0.0126 | – | 0.0414 | –
13 | – | CCCCCOC(=O)[C@@H](C)NP(=O)(CO[C@H](C)Cn1cnc2c(N)ncnc21)NC(C)(C)C(=O)OC(C)C (single isomer, unassigned) [Example 8B] | 0.0039 | 0.0207 | – | –
14 | – | CCCCCCOC(=O)C(C)(C)NP(=O)(CO[C@H](C)Cn1cnc2c(N)ncnc21)N[C@H](C)C(=O)OCC(C)C (single isomer, unassigned) [Example 10A] | 0.0066 | 0.0725 | – | –
15 | – | CCCCCCOC(=O)C(C)(C)NP(=O)(CO[C@H](C)Cn1cnc2c(N)ncnc21)N[C@H](C)C(=O)OCCCC (single isomer, unassigned) [Example 11A] | 0.0099 | 0.099 | – | –
16 | – | CCCCCCOC(=O)C(C)(C)NP(=O)(CO[C@H](C)Cn1cnc2c(N)ncnc21)N[C@H](C)C(=O)OCCCC (single isomer, unassigned) [Example 11B] | 0.0008 | 0.0026 | – | –
17 | – | CCCCCCOC(=O)C(C)(C)NP(=O)(CO[C@H](C)Cn1cnc2c(N)ncnc21)N[C@H](C)C(=O)OCCCCC (single isomer, unassigned) [Example 12A] | 0.0073 | 0.0544 | – | –
18 | – | CCCCCCOC(=O)C(C)(C)NP(=O)(CO[C@H](C)Cn1cnc2c(N)ncnc21)N[C@H](C)C(=O)OCCCCC (single isomer, unassigned) [Example 12B] | 0.0005 | 0.0033 | – | –
19 | 83.8 | CCCCCCOC(=O)[C@@H](C)NP(=O)(CO[C@H](C)Cn1cnc2c(N)ncnc21)NC(C)(C)C(=O)OCCCCCC (single isomer, unassigned) [Example 13B] | – | – | – | –
20 | – | CCCCCCOC(=O)C(C)(C)NP(=O)(CO[C@H](C)Cn1cnc2c(N)ncnc21)N[C@H](C)C(=O)OC1CCCC1 (single isomer, unassigned) [Example 14A] | 0.0098 | 0.0672 | – | –
21 | – | CCCCCCOC(=O)C(C)(C)NP(=O)(CO[C@H](C)Cn1cnc2c(N)ncnc21)N[C@H](C)C(=O)OC1CCCCC1 (single isomer, unassigned) [Example 15A] | 0.0077 | 0.0259 | – | –
22 | – | CCCCCOC(=O)[C@@H](C)NP(=O)(CO[C@H](C)Cn1cnc2c(N)ncnc21)NC(C)(C)C(=O)OCCCCC (single isomer, unassigned) [Example 16A] | 0.01 | 0.0601 | – | –
23 | – | CC(C)OC(=O)C(C)(C)NP(=O)(CO[C@H](C)Cn1cnc2c(N)ncnc21)N[C@H](C)C(=O)OC1CCC1 (single isomer, unassigned) [Example 18A] | – | – | 0.0342 | 0.02
24 | – | CCCCCOC(=O)C(C)(C)NP(=O)(CO[C@H](C)Cn1cnc2c(N)ncnc21)N[C@H](C)C(=O)OC1CCC1 (single isomer, unassigned) [Example 19A] | 0.0069 | 0.0274 | – | –
25 | – | CCCCCCOC(=O)C(C)(C)NP(=O)(CO[C@H](C)Cn1cnc2c(N)ncnc21)N[C@H](C)C(=O)OC1CCC1 (single isomer, unassigned) [Example 21A] | 0.0044 | 0.0149 | – | –
26 | – | CCCCCCOC(=O)C(C)(C)NP(=O)(CO[C@H](C)Cn1cnc2c(N)ncnc21)N[C@H](C)C(=O)OC1CCC1 (single isomer, unassigned) [Example 21B] | 0.0007 | 0.0028 | – | –
27 | – | CCCCOC(=O)C(C)(C)NP(=O)(CO[C@H](C)Cn1cnc2c(N)ncnc21)N[C@H](C)C(=O)OC1CCC1 (single isomer, unassigned) [Example 23A] | – | 0.0355 | – | 0.0067
28 | – | CCCCCOC(=O)[C@H]1CCCN1P(=O)(CO[C@H](C)Cn1cnc2c(N)ncnc21)NC(C)(C)C(=O)OCCCCC (single isomer, unassigned) [Example 26A] | – | 0.0503 | – | 0.0053
29 | – | C[C@H](Cn1cnc2c(N)ncnc21)OCP(=O)(N[C@H](C)C(=O)OC1CCCC1)NC(C)(C)C(=O)OC1CCCCC1 (single isomer, unassigned) [Example 27A] | 0.0129 | 0.0645 | – | –
30 | – | C[C@H](Cn1cnc2c(N)ncnc21)OCP(=O)(N[C@H](C)C(=O)OC1CCCC1)NC(C)(C)C(=O)OC1CCC1 (single isomer, unassigned) [Example 28A] | – | 0.0161 | – | 0.0054
